Like-named read-outs stand apart in the source and are kept apart here.
What was measured:
[1] = tested on: […] (SEQ ID NO: 4) amyloid peptide; assay type: binding; conditions: for AD compound captured, Wash 1 / AD compound captured, Wash 2 / AD compound captured, Wash 3: 150 μM inhibitor loaded; for AD compound captured, Wash 1: 1st pellet wash; for AD compound captured, Wash 2: 2nd pellet wash; for AD compound captured, Wash 3: 3rd pellet wash; for fraction of the 150 μM loaded drug incorporated into the peptide: UV-Vis, first wash
Method: Amyloid Peptide/Inhibitor Coordination Studies in Dilute Solutions. […]. As a negative control, 1 mL of 0.1 M PBS buffer was added. The mixtures were vortexed and sonicated to homogenously disperse any solid aggregates and stirred overnight to allow for coordination. The mixtures were transferred to 2 mL Eppendorf tubes and centrifuged for 15 mins at 4,400 rpm (14° C.) to pelletize the amyloid bound-inhibitors, and the supernatant was decanted. Subsequently, 1 mL of DI water was added to wash the pellet (followed by vortexing until obtaining a homogenous dispersion) in order to remove any unbound inhibitor. The samples were then centrifuged again at the same conditions so as to pelletize the amyloid materials, and the supernatant was decanted. Another 1 mL of DI water was then added into the pellet, the mixture was vortexed, and the physically bound inhibitor into the dilute amyloid peptide dispersions was quantified by UV-Vis between 200-600 nm and MS. This step is denoted as wash 1 in our study. Two additional pellet purification cycles were realized with replacement of the decanted volume each time with 1 mL of fresh DI water (denoted as wash 2 and wash 3 respectively). The inhibitor-containing peptides amyloids were normalized at 400 nm over the respective no inhibitor-containing amyloid peptides at the specific washing step, and the measured inhibitor peak values (at 315 nm and 323 nm) were subtracted from that of the amyloid peptide carriers at the same wavelength and concentration. The amount of inhibitors coordinated with the amyloid peptide carriers was quantified based on a calibration curve by both UV-Vis and MS.
. The peak at 315 nm was selected for inhibitor quantification due the absence of peaks at that range for both peptides. […]. However, the peak at 315 nm was selected for inhibitor quantification, and the following equation was used for both peptides: A315=A315 ([…]/Donepezil)−A315 ([…])
[…]. The peak at 323 nm was used for inhibitor quantification due the absence of peaks at that range for both peptides. […].

[2] = tested on: […] (SEQ ID NO: 4) amyloid peptide; assay: Incubation of amyloid gel containing inhibitor in PBS at 37° C., drug retained; assay type: binding; conditions: YFTGAIIGNFY 5 mg/mL; for AD compound captured after incubation, Wash 2: 2nd pellet wash; for AD compound captured after incubation, Wash 3: 3rd pellet wash
Method: Incubation of Amyloid Gels-Containing Inhibitors in PBS at 37° C. […] (SEQ ID NO: 4) amyloid gels were prepared at 10 mg/mL (1 mL) and a 0.1 M PBS solution of Donepezil was added at 1000 μM (1 mL) and was left to stir overnight (the final peptide concentration was diluted to 5 mg/mL). A control of 1 mL 0.1 M PBS was also prepared. The complexed amyloid/inhibitor was sequentially centrifuged, and the same volume of water (2 mL) was added in the pellet to wash it (followed by vortexing until obtaining a complete dispersion) and remove the unbound inhibitor (wash 1). The sample was centrifuged, the pellet was isolated, and 2 mL of 0.1 M PBS was added, followed by overnight incubation under stirring at 37° C. The inhibitor-containing peptide was then pelletized, the supernatant was decanted, and the peptide/inhibitor dispersion was quantified after addition of 2 mL water (wash 2). A second washing step with 2 mL fresh water was subsequently realized and the pellet was quantified again (wash 3). Example 2: Coordination of the Designed Amyloid Peptides with AD drugs in Dilute Solution.

[3] = incubated at 37° C. in PBS for one day after wash 1, by MS
[4] = incubated at 37° C. in PBS for one day after wash 1, by UV-Vis

SMILES	AD compound captured, Wash 1 ([1]; […] 1 mg/mL, by MS) [µM]	AD compound captured, Wash 2 ([1]; […] 1 mg/mL, by MS) [µM]	AD compound captured, Wash 3 ([1]; […] 1 mg/mL, by MS) [µM]	AD compound captured, Wash 1 ([1]; […] 1 mg/mL, by UV-Vis) [µM]	AD compound captured, Wash 1 ([1]; […] 1 mg/mL, by UV-Vis, listed as Tacrine) [µM]	AD compound captured, Wash 2 ([1]; […] 1 mg/mL, by UV-Vis) [µM]	AD compound captured, Wash 3 ([1]; […] 1 mg/mL, by UV-Vis) [µM]	fraction of the 150 μM loaded drug incorporated into the peptide ([1]; […] 1 mg/mL)	AD compound captured, Wash 1 ([1]; YFTGAIIGNFY 1 mg/mL, by MS) [µM]	AD compound captured, Wash 2 ([1]; YFTGAIIGNFY 1 mg/mL, by MS) [µM]	AD compound captured, Wash 3 ([1]; YFTGAIIGNFY 1 mg/mL, by MS) [µM]	AD compound captured, Wash 1 ([1]; YFTGAIIGNFY 1 mg/mL, by UV-Vis) [µM]	AD compound captured, Wash 1 ([1]; YFTGAIIGNFY 1 mg/mL, by UV-Vis, listed as Donepezil) [µM]	AD compound captured, Wash 2 ([1]; YFTGAIIGNFY 1 mg/mL, by UV-Vis) [µM]	AD compound captured, Wash 3 ([1]; YFTGAIIGNFY 1 mg/mL, by UV-Vis) [µM]	fraction of the 150 μM loaded drug incorporated into the peptide ([1]; YFTGAIIGNFY 1 mg/mL)	AD compound captured after incubation, Wash 2 [2, 3] [µM]	AD compound captured after incubation, Wash 3 [2, 3] [µM]	AD compound captured after incubation, Wash 2 [2, 4] [µM]	AD compound captured after incubation, Wash 3 [2, 4] [µM]
Nc1c2c(nc3ccccc13)CCCC2 [tacrine]	37 ± 2	2 ± 2	0	26	26 ± 2	14 ± 2	3 ± 2	approximately ⅕	–	–	–	–	–	–	–	–	–	–	–	–
COc1cc2c(cc1OC)C(=O)C(CC1CCN(Cc3ccccc3)CC1)C2 (centres unmarked) [donepezil]	–	–	–	–	–	–	–	–	43 ± 6	32 ± 4	21 ± 9	38	38 ± 4	24 ± 4	5 ± 4	approximately ¼	128 ± 12	120 ± 18	121 ± 25	110 ± 31
